Experimental data as given in article PMC9228535, “Antistaphylococcal Activities and ADME-Related Properties of Chlorinated Arylcarbamoylnaphthalenylcarbamates” (Pharmaceuticals, 2022).
≈ marks a conversion by molar mass, not a printed value. Read-outs that look alike come from different tables or passages of the source.

What was measured:
[1] = Lipophilicity determination by RP-HPLC (log k, log D); format: physicochemical; conditions: for log D6.5 / log D7.4 / log k: RP-HPLC; for log D6.5: MeOH 72%/acetate buffered saline pH 6.5; for log D7.4: MeOH 72%/acetate buffered saline pH 7.4; for log k: MeOH 72%/water 28%
Description: Lipophilicity was measured by reversed-phase high performance liquid chromatography (RP-HPLC) under isocratic conditions with methanol as the organic modifier in the aqueous mobile phase and the logarithm of the capacity factor k was calculated, which is used as the lipophilicity index converted to the log P scale. In addition to the log k values, the logarithm of the distribution coefficient DpH at pH 6.5 and 7.4 was determined to clarify the behavior of the compounds under physiological conditions and possible ionization. Instead of water, a buffer of suitable pH was used as part of the mobile phase. In addition to the above-mentioned experimental methods, commercially available ChemBioDraw Ultra 13.0 and ACD/Percepta ver. […] In addition to lipophilicity, other parameters discussed in Ro5, such as molecular weight, number of H-bond donors/acceptors, as well as parameters not reported in Ro5, but characterizing the physicochemical properties of the prepared molecules, such as number of rotatable bonds, were predicted using ACD/Percepta. Moreover, for each R substituent, bulkiness expressed as molar volume (MV [cm^3]), a parameter describing the tail length/branching of each carbamates, was calculated.
A HPLC separation module Agilent 1200 Series (Agilent Technologies, Santa Clara, CA, USA) equipped with a Dual Absorbance Detector (DAD SL G1315C, Agilent Technologies) was used. A chromatographic column Symmetry® C18 5 μm, 4.6 × 250 mm, Part No. W21751W016 (Waters Corp, Milford, MA, USA) was used. The HPLC separation process was monitored by ChemStation for LC 3D systems (Agilent Technologies). […] The total flow of the column was 1.0 mL/min, injection 20 μL, column temperature 40 °C, and sample temperature 10 °C. The detection wavelength of 210 nm was chosen. A KI methanolic solution was used for the determination of the dead times (tD). Retention times (tR) were measured in minutes. The capacity factors k were calculated according to the formula k = (tR − tD)/tD, where tR is the retention time of the solute, and tD is the dead time obtained using an unretained analyte. The distribution coefficients DpH were calculated according to the formula DpH = (tR − tD)/tD. Each experiment was repeated three times.

[2] = test system: MRSA 63718; experiment: MIC, microtitration broth method; format: cell-based; conditions: Staphylococcus aureus
Description: (§1) All the investigated compounds were screened for in vitro antibacterial activity against the reference and quality control strain Staphylococcus aureus ATCC 29213 and clinical isolates of methicillin-resistant S. aureus (MRSA) 63718, SA 630, and SA 3202 [14]. Activities are expressed as the minimum inhibitory concentrations (MICs), see Table 2. In addition to the MICs, the minimum bactericidal concentrations (MBCs) were also determined.
(§2) In vitro antibacterial activity of the synthesized compounds was evaluated against representatives of multidrug-resistant bacteria, three clinical isolates of methicillin-resistant S. aureus: clinical isolate of animal origin, MRSA 63718 (Department of Infectious Diseases and Microbiology, Faculty of Veterinary Medicine, University of Veterinary Sciences Brno, Czech Republic), carrying the mecA gene; and MRSA SA 630 [46] and MRSA SA 3202 [46] (National Institute of Public Health, Prague, Czech Republic), both of human origin. Suspected colonies were confirmed by PCR; a 108bp fragment specific for S. aureus was detected. All isolates were tested for the presence of the mecA gene encoding methicillin resistance. […] Vancomycin-susceptible methicillin-susceptible S. aureus (VS-MSSA) ATCC 29213, obtained from the American Type Culture Collection, was used as the reference and quality control strain. Enterococcus faecalis ATCC 29212 was obtained from the American Type Culture Collection and used as the reference and quality control strain.
(§3) The minimum inhibitory concentrations (MICs) were evaluated by the microtitration broth method according to the CLSI [64, 65] with some modifications. The compounds were dissolved in DMSO (Sigma, St. Louis, MO, USA) to get a concentration […] and diluted in a microtitration plate in an appropriate medium, namely, Cation Adjusted Mueller–Hinton (CaMH, Oxoid, Basingstoke, UK) for staphylococci (S. aureus ATCC 29213, clinical isolates of MRSA 63718, SA 630, and SA 3202) and brain heart infusion (BHI, Oxoid) for E. faecalis ATCC 29212, to reach the final concentration of 256-0.125 µg/mL. The plate was inoculated by the tested microorganisms. The final concentration of bacterial cells was 10^5 for bacteria. Ampicillin (Sigma) was used as reference drugs. A drug-free control and a sterility control were included. The plates were incubated for 24 h at 37 °C for staphylococci and E. faecalis ATCC 29212 (stability evaluation of the carbamates, see Supplementary materials, Table S1). […] The experiments were repeated three times.

[3] = test system: MRSA SA 3202; experiment: MIC, microtitration broth method; format: cell-based; conditions: Staphylococcus aureus
Description: as §1, §2, §3

[4] = test system: MRSA SA 630; experiment: MIC, microtitration broth method; format: cell-based; conditions: Staphylococcus aureus
Description: as §1, §2, §3

[5] = test system: Staphylococcus aureus ATCC 29213; experiment: MIC, microtitration broth method; format: cell-based; conditions: ATCC29213, SA = S. aureus ATCC 29213, 24 h, read-out: MIC
Description: as §1, §2, §3

[6] = test system: MRSA 63718; experiment: MBC, agar aliquot subculture method; format: cell-based; conditions: Staphylococcus aureus, MRSA
Description: as §1
(§4) For the S. aureus and MRSA isolates, the agar aliquot subculture method was used as a test for bactericidal agents. After the MIC value determination, the inoculum was transferred to Mueller–Hinton (Oxoid) agar using a multipoint inoculator. The plates were incubated in a thermostat at 37 °C for 24 h. The lowest concentration of test compound at which ≤5 colonies were obtained was then evaluated as MBC, corresponding to a 99.9% decrease in CFU relative to the original inoculum.

[7] = test system: MRSA SA 3202; experiment: MBC, agar aliquot subculture method; format: cell-based; conditions: Staphylococcus aureus
Description: as §1, §4

[8] = test system: MRSA SA 630; experiment: MBC, agar aliquot subculture method; format: cell-based; conditions: Staphylococcus aureus
Description: as §1, §4

[9] = test system: Staphylococcus aureus ATCC 29213; experiment: MBC, agar aliquot subculture method; format: cell-based; conditions: ATCC29213, SA = S. aureus ATCC 29213, read-out: MBC
Description: as §1, §4

[10] = test system: Enterococcus faecalis ATCC 29212; experiment: MIC, microtitration broth method; format: cell-based; conditions: for MIC: ATCC29212, EF = Enterococcus faecalis, 24 h, read-out: MIC; for anti-enterococcal activity (in words): E. faecalis ATCC 29212
Description: as §2, §3

[11] = test system: THP-1 cells; experiment: In vitro cytotoxicity assay (WST-1); format: cell-based; conditions: Homo sapiens; THP-1, 24 h, ± SD, n = 6; read-out: IC50
Description: Preliminary in vitro cytotoxicity screening of the investigated compounds was performed using human monocytic leukemia THP-1 cells, see Table 2. The ability to inhibit the human cancer cell viability (IC50) of the compounds was compared to camptothecin toxicity (0.16 ± 0.07 μM). […] However, these values are up to two orders of magnitude higher than their significant antistaphyloccocal concentrations. This fact is also taken into account in the calculated selectivity index (SI), Table 2, where for only three compounds the SI is <20, while for the rest of the agents SI is >20, and for some derivatives even 100 and more. Thus, based on all these observations, it can be concluded that all the tested derivatives can be considered as in vitro non-toxic compounds for the subsequent design of new therapeutic agents.
The human THP-1 cell line (European Collection of Cell Cultures, Salisbury, UK) was cultured in RPMI 1640 medium supplemented with 10% fetal bovine serum, 2% L-glutamine, 1% penicillin, and streptomycin at 37 °C with 5% CO2. Cells were passaged at approximately 1-week intervals. All the tested compounds were prepared and dissolved as mentioned in our previous work.

[12] = test system: S. aureus and MRSA isolates; experiment: Antistaphylococcal MIC, summary over strains; format: cell-based, Staphylococcus aureus
Description: as §1, with “determined. […] MBC values that meet this requirement, i.e., the compound is bactericidal, are indicated in bold in Table 2.” for “determined.”
as §2
The minimum inhibitory concentrations (MICs) were evaluated by the microtitration broth method according to the CLSI [64, 65] with some modifications. […]

[13] = test system: MRSA 63718; set-up: method as in PMID 25692135; conditions: cited from earlier work

Structure (SMILES)	log D6.5 [1]	log D7.4 [1]	log k [1]	MIC ([2]; MRSA, 24 h) [µM]	MIC ([3]; 24 h) [µM]	MIC ([4]; 24 h) [µM]	MIC [5] [µM]	MBC [6] [µM]	MBC [7] [µM]	MBC [8] [µM]	MBC [9] [µM]	MIC [10] [µM]	IC50 [11] [µM]	other results
CCCCNC(=O)Oc1c(C(=O)Nc2cc(Cl)c(Cl)cc2Cl)ccc2ccccc12 [Compound 4, 2-[N-(2,4,5-Trichlorophenyl)carbamoyl]naphthalen-1-yl butyl carbamate]	0.9980	1.1401	1.0756	0.135 (≈ 0.0629 µg/mL)	0.069 (≈ 0.0321 µg/mL)	0.017 (≈ 0.00792 µg/mL)	0.034 (≈ 0.0158 µg/mL)	0.268 (≈ 0.125 µg/mL)	0.069 (≈ 0.0321 µg/mL)	0.537 (≈ 0.25 µg/mL)	0.034 (≈ 0.0158 µg/mL)	275 (≈ 128 µg/mL)	3.42 ± 0.1	MIC ([12]; Staphylococcus aureus, read-out: MICs): 0.018 to 0.064 µM (≈ 0.00838 to 0.0298 µg/mL)
CN[C@H](CC(C)C)C(=O)N[C@H]1C(=O)N[C@@H](CC(N)=O)C(=O)N[C@H]2C(=O)N[C@H]3C(=O)N[C@H](C(=O)N[C@H](C(=O)O)c4cc(O)cc(O)c4-c4cc3ccc4O)[C@H](O)c3ccc(c(Cl)c3)Oc3cc2cc(c3O[C@@H]2O[C@H](CO)[C@@H](O)[C@H](O)[C@H]2O[C@H]2C[C@](C)(N)[C@H](O)[C@H](C)O2)Oc2ccc(cc2Cl)[C@H]1O [vancomycin]														MIC [13]: 2 µg/mL (≈ 1.38 µM)
O=C(Nc1cc(Cl)c(Cl)cc1Cl)c1ccc2ccccc2c1O [Compound 1, 1-hydroxy-N-(2,4,5-trichlorophenyl)-2-naphthamide]	0.5782	0.5384	0.6600				698 (≈ 256 µg/mL)					477 (≈ 175 µg/mL)	> 30	MIC ([2]; MRSA1 = MRSA 63718, 24 h, read-out: MIC): 698 µM (≈ 256 µg/mL); MIC ([3]; MRSA3 = SA 3202, 24 h, read-out: MIC): 698 µM (≈ 256 µg/mL); MIC ([4]; MRSA2 = SA 630, 24 h, read-out: MIC): 698 µM (≈ 256 µg/mL); antistaphylococcal/antibacterial activity (in words) ([12]; S. aureus and MRSA isolates): no antibacterial activity
O=C(NC1CCCCC1)Oc1c(C(=O)Nc2cc(Cl)c(Cl)cc2Cl)ccc2ccccc12 [Compound 11, 2-[N-(2,4,5-Trichlorophenyl)carbamoyl]naphthalen-1-yl cyclohexyl carbamate]	1.2952	1.2955	1.2911	0.254 (≈ 0.125 µg/mL)	0.508 (≈ 0.25 µg/mL)	0.508 (≈ 0.25 µg/mL)	0.128 (≈ 0.063 µg/mL)	0.508 (≈ 0.25 µg/mL)	0.508 (≈ 0.25 µg/mL)	1.02 (≈ 0.5 µg/mL)	0.508 (≈ 0.25 µg/mL)	65.1 (≈ 32 µg/mL)	2.76 ± 0.24	anti-enterococcal activity (in words) [10]: moderate activity
CCCCCCCNC(=O)Oc1c(C(=O)Nc2cc(Cl)c(Cl)cc2Cl)ccc2ccccc12 [Compound 7, 2-[N-(2,4,5-Trichlorophenyl)carbamoyl]naphthalen-1-yl heptyl carbamate]	1.6765	1.6863		0.246 (≈ 0.125 µg/mL)	0.246 (≈ 0.125 µg/mL)	0.246 (≈ 0.125 µg/mL)	0.124 (≈ 0.063 µg/mL)	0.246 (≈ 0.125 µg/mL)	0.246 (≈ 0.125 µg/mL)	0.492 (≈ 0.25 µg/mL)	0.124 (≈ 0.063 µg/mL)	63 (≈ 32 µg/mL)	3.19 ± 0.44	anti-enterococcal activity (in words) [10]: moderate activity
CCCCCCCCNC(=O)Oc1c(C(=O)Nc2cc(Cl)c(Cl)cc2Cl)ccc2ccccc12 [Compound 8, 2-[N-(2,4,5-Trichlorophenyl)carbamoyl]naphthalen-1-yl octyl carbamate]	1.8687	1.8785	1.8654	0.958 (≈ 0.5 µg/mL)	1.92 (≈ 1 µg/mL)	0.479 (≈ 0.25 µg/mL)	0.479 (≈ 0.25 µg/mL)	1.92 (≈ 1 µg/mL)	1.92 (≈ 1 µg/mL)	1.92 (≈ 1 µg/mL)	0.958 (≈ 0.5 µg/mL)	123 (≈ 64.2 µg/mL)	2.61 ± 0.32	lipophilicity (experimental log k/log D, approximate) [1]: ca. 1.87
CCCNC(=O)Oc1c(C(=O)Nc2cc(Cl)c(Cl)cc2Cl)ccc2ccccc12 [Compound 3, 2-[N-(2,4,5-Trichlorophenyl)carbamoyl]naphthalen-1-yl propyl carbamate]	0.9734	0.9793	0.9689	0.139 (≈ 0.0628 µg/mL)	0.071 (≈ 0.0321 µg/mL)	0.553 (≈ 0.25 µg/mL)	0.035 (≈ 0.0158 µg/mL)	0.277 (≈ 0.125 µg/mL)	0.071 (≈ 0.0321 µg/mL)	0.553 (≈ 0.25 µg/mL)	0.035 (≈ 0.0158 µg/mL)	283 (≈ 128 µg/mL)	3.12 ± 0.07	
